Measured values: ChEMBL document CHEMBL4828717, “Synthetic cajaninstilbene acid derivatives eradicate methicillin-resistant Staphylococcus aureus persisters and biofilms” (Eur J Med Chem, 2021)

Tests used:
[1] = system: Staphylococcus aureus; experiment: Antibacterial activity against methicillin resistant Staphylococcus aureus ATCC 52056 assessed as reduction in microbial growth after 16 to 18 hrs by microbroth dilution method; format: functional; settings: time 16-18 hrs
[2] = system: Staphylococcus aureus; experiment: Antibacterial activity against methicillin resistant Staphylococcus aureus ATCC 43300 assessed as reduction in microbial growth after 16 to 18 hrs by microbroth dilution method; format: functional; settings: time 16-18 hrs
[3] = system: L02; experiment: Cytotoxicity against human L02 cells assessed as cell viability at 10 ug/ml measured after 24 hrs by MTT assay; format: cell-based; settings: l02, 24 h, dose 10 µg/ml
[4] = system: Enterococcus faecalis; experiment: Antibacterial activity against Enterococcus faecalis ATCC29212 assessed as reduction in microbial growth after 16 to 18 hrs by microbroth dilution method; format: functional; settings: ATCC 29212, time 16-18 hrs
[5] = system: Escherichia coli; experiment: Antibacterial activity against Escherichia coli ATCC25922 assessed as reduction in microbial growth after 16 to 18 hrs by microbroth dilution method; format: functional; settings: ATCC 25922, time 16-18 hrs
[6] = system: Staphylococcus aureus; experiment: Antibacterial activity against methicillin resistant Staphylococcus aureus ATCC48966 assessed as reduction in microbial growth after 16 to 18 hrs by microbroth dilution method; format: functional; settings: time 16-18 hrs
[7] = system: Staphylococcus aureus; experiment: Antibacterial activity against methicillin resistant Staphylococcus aureus ATCC 62202 assessed as reduction in microbial growth after 16 to 18 hrs by microbroth dilution method; format: functional; settings: time 16-18 hrs
[8] = system: Staphylococcus aureus; experiment: Antibacterial activity against methicillin resistant Staphylococcus aureus ATCC49800 assessed as reduction in microbial growth after 16 to 18 hrs by microbroth dilution method; format: functional; settings: time 16-18 hrs
[9] = system: RAW264.7; experiment: Cytotoxicity against mouse RAW264.7 cells assessed as cell viability at 10 ug/ml measured after 24 hrs by MTT assay; format: cell-based; settings: raw264.7, 24 h, dose 10 µg/ml
[10] = system: Staphylococcus aureus; experiment: Antibacterial activity against methicillin resistant Staphylococcus aureus ATCC48706 assessed as reduction in microbial growth after 16 to 18 hrs by microbroth dilution method; format: functional; settings: time 16-18 hrs
[11] = system: Staphylococcus aureus; experiment: Antibacterial activity against Staphylococcus aureus ATCC 25923 assessed as reduction in microbial growth after 16 to 18 hrs by microbroth dilution method; format: functional; settings: time 16-18 hrs
[12] = system: Pseudomonas aeruginosa; experiment: Antibacterial activity against Pseudomonas aeruginosa ATCC27853 assessed as reduction in microbial growth after 16 to 18 hrs by microbroth dilution method; format: functional; settings: time 16-18 hrs
[13] = system: Staphylococcus aureus; experiment: Antibacterial activity against methicillin resistant Staphylococcus aureus ATCC49008 assessed as reduction in microbial growth after 16 to 18 hrs by microbroth dilution method; format: functional; settings: time 16-18 hrs
[14] = system: Staphylococcus aureus; experiment: Antibacterial activity against methicillin resistant Staphylococcus aureus ATCC515992 assessed as reduction in microbial growth after 16 to 18 hrs by microbroth dilution method; format: functional; settings: time 16-18 hrs
[15] = system: Staphylococcus aureus; experiment: Antibacterial activity against methicillin resistant Staphylococcus aureus ATCC513045 assessed as reduction in microbial growth after 16 to 18 hrs by microbroth dilution method; format: functional; settings: time 16-18 hrs
[16] = system: Staphylococcus aureus; experiment: Antibacterial activity against methicillin resistant Staphylococcus aureus ATCC49025 assessed as reduction in microbial growth after 16 to 18 hrs by microbroth dilution method; format: functional; settings: time 16-18 hrs
[17] = system: Staphylococcus aureus; experiment: Antibacterial activity against methicillin resistant Staphylococcus aureus ATCC48073 assessed as reduction in microbial growth after 16 to 18 hrs by microbroth dilution method; format: functional; settings: time 16-18 hrs

Molecule | MIC [1] | MIC [2] | Activity [3] | MIC [4] | MIC [5] | MIC [6] | MIC [7] | MIC [8] | Activity [9] | MIC [10] | MIC [11] | MIC [12] | MIC [13] | MIC [14] | MIC [15] | MIC [16] | MIC [17]
CCC(CC)Oc1cc(/C=C/c2ccc(C(F)(F)F)cc2)c(C(=O)O)c(O)c1CC=C(C)C | 1 µg/mL | 2 µg/mL | Toxic | > 32 µg/mL | > 32 µg/mL | 2 µg/mL | 1 µg/mL | 2 µg/mL | Toxic | 2 µg/mL | 1 µg/mL | > 32 µg/mL | 2 µg/mL | 2 µg/mL | 1 µg/mL | 2 µg/mL | 2 µg/mL
CC(C)=CCc1c(OC(C)C)cc(/C=C/c2ccc(F)cc2)c(C(=O)O)c1O | 2 µg/mL | 4 µg/mL | Toxic | > 32 µg/mL | > 32 µg/mL | 4 µg/mL | 4 µg/mL | 4 µg/mL | Toxic | 4 µg/mL | 4 µg/mL | > 32 µg/mL | 4 µg/mL | 2 µg/mL | 8 µg/mL | 4 µg/mL | 4 µg/mL
CC(C)=CCc1c(OCCC(F)(F)F)cc(/C=C/c2ccc(F)cc2)c(C(=O)O)c1O | 4 µg/mL | 4 µg/mL | Toxic | > 32 µg/mL | > 32 µg/mL | 4 µg/mL | 4 µg/mL | 4 µg/mL | Toxic | 4 µg/mL | 4 µg/mL | > 32 µg/mL | 4 µg/mL | 4 µg/mL | 2 µg/mL | 4 µg/mL | 4 µg/mL
CC(C)=CCc1c(OCc2ccccc2)cc(/C=C/c2ccc(C(F)(F)F)cc2)c(C(=O)O)c1O | 2 µg/mL | 2 µg/mL | Toxic | > 32 µg/mL | > 32 µg/mL | 4 µg/mL | 2 µg/mL | 4 µg/mL | Toxic | 4 µg/mL | 4 µg/mL | > 32 µg/mL | 4 µg/mL | 2 µg/mL | 2 µg/mL | 4 µg/mL | 4 µg/mL
CC(C)=CCc1c(OCCC(F)(F)F)cc(/C=C/c2ccc(C(F)(F)F)cc2)c(C(=O)O)c1O | 2 µg/mL | 2 µg/mL | Toxic | > 32 µg/mL | > 32 µg/mL | 4 µg/mL | 2 µg/mL | 4 µg/mL | Toxic | 4 µg/mL | 2 µg/mL | > 32 µg/mL | 4 µg/mL | 2 µg/mL | 2 µg/mL | 4 µg/mL | 4 µg/mL
CCOc1cc(/C=C/c2ccc(F)cc2)c(C(=O)O)c(O)c1CC=C(C)C | 2 µg/mL | 2 µg/mL | Toxic | > 32 µg/mL | > 32 µg/mL | 4 µg/mL | 4 µg/mL | 8 µg/mL | Toxic | 4 µg/mL | 4 µg/mL | > 32 µg/mL | 4 µg/mL | 4 µg/mL | 4 µg/mL | 4 µg/mL | 4 µg/mL
CC(C)=CCc1c(OCC(F)F)cc(/C=C/c2ccc(F)cc2)c(C(=O)O)c1O | 2 µg/mL | 4 µg/mL | Toxic | > 32 µg/mL | > 32 µg/mL | 4 µg/mL | 4 µg/mL | 4 µg/mL | Toxic | 4 µg/mL | 4 µg/mL | > 32 µg/mL | 4 µg/mL | 4 µg/mL | 4 µg/mL | 4 µg/mL | 4 µg/mL
CC(C)=CCc1c(OC2CCCCC2)cc(/C=C/c2ccc(C(F)(F)F)cc2)c(C(=O)O)c1O | 2 µg/mL | 1 µg/mL | Toxic | > 32 µg/mL | > 32 µg/mL | 4 µg/mL | 2 µg/mL | 4 µg/mL | Toxic | 4 µg/mL | 2 µg/mL | > 32 µg/mL | 4 µg/mL | 2 µg/mL | 2 µg/mL | 4 µg/mL | 4 µg/mL
CC(C)=CCc1c(OCC(F)(F)F)cc(/C=C/c2ccc(C(F)(F)F)cc2)c(C(=O)O)c1O | 2 µg/mL | 2 µg/mL | Toxic | > 32 µg/mL | > 32 µg/mL | 2 µg/mL | 2 µg/mL | 2 µg/mL | Toxic | 2 µg/mL | 2 µg/mL | > 32 µg/mL | 2 µg/mL | 2 µg/mL | 2 µg/mL | 2 µg/mL | 2 µg/mL
CC(C)=CCc1c(OC2CCC2)cc(/C=C/c2ccc(C(F)(F)F)cc2)c(C(=O)O)c1O | 1 µg/mL | 1 µg/mL | Toxic | > 32 µg/mL | > 32 µg/mL | 1 µg/mL | 1 µg/mL | 2 µg/mL | Toxic | 1 µg/mL | 2 µg/mL | > 32 µg/mL | 1 µg/mL | 2 µg/mL | 1 µg/mL | 1 µg/mL | 2 µg/mL
GENTAMICIN | – | 16 µg/mL | – | – | – | – | – | – | – | – | – | – | – | – | – | – | –
CCOc1cc(/C=C/c2ccc(C(F)(F)F)cc2)c(C(=O)O)c(O)c1CC=C(C)C | 1 µg/mL | 1 µg/mL | Toxic | > 32 µg/mL | > 32 µg/mL | 2 µg/mL | 1 µg/mL | 2 µg/mL | Toxic | 2 µg/mL | 2 µg/mL | > 32 µg/mL | 2 µg/mL | 2 µg/mL | 2 µg/mL | 2 µg/mL | 2 µg/mL
CC(C)=CCc1c(OCC(F)(F)F)cc(/C=C/c2ccc(F)cc2)c(C(=O)O)c1O | 2 µg/mL | 2 µg/mL | Toxic | > 32 µg/mL | > 32 µg/mL | 4 µg/mL | 4 µg/mL | 4 µg/mL | Toxic | 4 µg/mL | 4 µg/mL | > 32 µg/mL | 4 µg/mL | 4 µg/mL | 4 µg/mL | 4 µg/mL | 4 µg/mL
NC[C@H]1O[C@H](O[C@H]2[C@H](O)[C@@H](O[C@H]3O[C@H](CO)[C@@H](O)[C@H](N)[C@H]3O)[C@H](N)C[C@@H]2N)[C@H](N)[C@@H](O)[C@@H]1O [BEKANAMYCIN] | – | 128 µg/mL | – | – | – | – | – | – | – | – | – | – | – | – | – | – | –
COc1cc(/C=C/c2ccccc2)c(C(=O)O)c(O)c1CC=C(C)C | 16 µg/mL | 16 µg/mL | – | > 32 µg/mL | > 32 µg/mL | 8 µg/mL | 16 µg/mL | 8 µg/mL | – | 8 µg/mL | 8 µg/mL | > 32 µg/mL | 8 µg/mL | 16 µg/mL | 16 µg/mL | 8 µg/mL | 8 µg/mL
CC(C)=CCc1c(OCCCC(F)(F)F)cc(/C=C/c2ccc(C(F)(F)F)cc2)c(C(=O)O)c1O | 2 µg/mL | 1 µg/mL | Toxic | > 32 µg/mL | > 32 µg/mL | 4 µg/mL | 4 µg/mL | 4 µg/mL | Toxic | 4 µg/mL | 2 µg/mL | > 32 µg/mL | 4 µg/mL | 2 µg/mL | 2 µg/mL | 4 µg/mL | 4 µg/mL
CCn1cc(C(=O)O)c(=O)c2cc(F)c(N3CCNCC3)cc21 [NORFLOXACIN] | 2 µg/mL | 32 µg/mL | – | > 32 µg/mL | > 32 µg/mL | 1 µg/mL | 2 µg/mL | 1 µg/mL | – | 2 µg/mL | 2 µg/mL | > 32 µg/mL | 1 µg/mL | 32 µg/mL | 32 µg/mL | 1 µg/mL | 1 µg/mL
CC1(C)S[C@@H]2[C@H](NC(=O)[C@H](N)c3ccccc3)C(=O)N2[C@H]1C(=O)O [AMPICILLIN] | > 128 µg/mL | > 128 µg/mL | – | > 32 µg/mL | > 32 µg/mL | > 128 µg/mL | > 128 µg/mL | > 128 µg/mL | – | > 128 µg/mL | 4 µg/mL | > 32 µg/mL | > 128 µg/mL | > 128 µg/mL | > 128 µg/mL | > 128 µg/mL | > 128 µg/mL
